# Laboratory results from patent US5506102A (priority 1993, dated 1996).
# Biological target: T1, PR-A (Homo sapiens, UniProt P06401)
# T1 sequence (P06401 165-933): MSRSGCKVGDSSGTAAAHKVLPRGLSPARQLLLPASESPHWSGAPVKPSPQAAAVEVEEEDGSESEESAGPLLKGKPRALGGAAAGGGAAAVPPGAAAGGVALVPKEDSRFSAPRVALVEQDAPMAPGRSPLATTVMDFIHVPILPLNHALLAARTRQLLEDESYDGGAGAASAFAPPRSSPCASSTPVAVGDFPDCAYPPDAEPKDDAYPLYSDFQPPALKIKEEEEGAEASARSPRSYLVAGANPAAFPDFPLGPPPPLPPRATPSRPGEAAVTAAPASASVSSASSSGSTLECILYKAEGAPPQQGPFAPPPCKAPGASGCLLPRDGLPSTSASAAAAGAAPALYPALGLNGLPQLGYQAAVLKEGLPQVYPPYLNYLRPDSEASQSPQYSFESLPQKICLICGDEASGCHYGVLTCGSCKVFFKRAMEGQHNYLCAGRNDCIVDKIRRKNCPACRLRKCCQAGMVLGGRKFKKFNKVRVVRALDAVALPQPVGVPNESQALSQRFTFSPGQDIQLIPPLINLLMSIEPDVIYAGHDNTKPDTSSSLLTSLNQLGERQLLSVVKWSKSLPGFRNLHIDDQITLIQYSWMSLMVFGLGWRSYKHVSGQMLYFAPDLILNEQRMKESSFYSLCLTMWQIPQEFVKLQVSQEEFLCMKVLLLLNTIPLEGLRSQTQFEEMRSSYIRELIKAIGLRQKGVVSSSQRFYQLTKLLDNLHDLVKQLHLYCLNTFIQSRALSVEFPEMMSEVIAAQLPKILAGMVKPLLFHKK
# Assay: PR-A regulation of TAT promoter
# Format: cell-based
# Design: TAT2950-LUC in HeLa, PRE2 tk-LUC in CV-1/HepG2
# Settings: data not shown
# Description: FIGS. 4A-4B are a series of graphs showing CV-1 ([…]) or HepG2 (FIG. 4B) cells that were transiently transfected with either […] of phPR-B or phPR-A alone, or phPR-B in the presence of increasing concentrations of phPR-A, together with 5 µg/ml of the PRE2 tk-LUC reporter and 5 µg/ml of pCH110 as an internal control. HeLa cells (FIG. 4C) were transfected with either phPR-B or phPR-A together with 5 µg/ml of the pTAT2950 reporter and 5 µg/ml of pCH110 as an internal control. […] The relative luciferase activity is calculated by dividing the normalized luciferase value at a given point by that obtained in the absence of transfected receptor or ligand. The data shown represent the mean +/- average deviation from the mean of triplicate estimations;
# The 2.9 Kb fragment resulting from the digestion of the pTAT-CAT plasmid, and the 6.7 Kb fragment, containing the luciferase gene and the backbone resulting from MMTV-LUC digestion products, were ligated to create the plasmid TAT2950-LUC.
# Cells were seeded in 12-well, 96-well or 10 cm tissue culture plates. […] 20 μg of DNA/ml of transfection buffer were used in each transfection reaction. […]
smiles,measurement,setting,value
CC(=O)[C@H]1CC[C@H]2[C@@H]3CCC4=CC(=O)CC[C@]4(C)[C@H]3CC[C@]12C [progesterone],TAT promoter response,"CV-1, PR-A",unresponsive to either receptor subtype
same,TAT promoter response to progesterone,"HepG2, phPR-A",responded to progesterone
